In the NIST ThermoML archive (doi:10.1021/je700042z):
Several values for one entry are separate records, joined by “and”; a condition that tells them apart may be missing. Equal values may be shown once.

Experiment: cn = amount concentration of the nth substance listed, in mol/dm3
Conditions: 298.15 K, 101 kPa, Liquid

O=C(O)CC(=O)O [propanedioic acid] + O
Conditions | binary diffusion coefficient
c1 = 0.000124 | 1.67e-09 m2/s and 1.68e-09 m2/s
c1 = 0.000252 | 1.59e-09 m2/s and 1.61e-09 m2/s and 1.6e-09 m2/s
c1 = 0.000253 | 1.61e-09 m2/s and 1.6e-09 m2/s and 1.59e-09 m2/s
c1 = 0.000378 | 1.53e-09 m2/s and 1.52e-09 m2/s
c1 = 0.000379 | 1.52e-09 m2/s
c1 = 0.000502 | 1.49e-09 m2/s
c1 = 0.000627 | 1.46e-09 m2/s and 1.45e-09 m2/s
c1 = 0.000751 | 1.42e-09 m2/s
c1 = 0.000803 | 1.4e-09 m2/s
c1 = 0.00138 | 1.32e-09 m2/s and 1.33e-09 m2/s
c1 = 0.0019 | 1.27e-09 m2/s
c1 = 0.0025 | 1.23e-09 m2/s and 1.22e-09 m2/s
c1 = 0.0035 | 1.19e-09 m2/s and 1.18e-09 m2/s
c1 = 0.00454 | 1.16e-09 m2/s
c1 = 0.0046 | 1.14e-09 m2/s and 1.15e-09 m2/s and 1.16e-09 m2/s
c1 = 0.00701 | 1.11e-09 m2/s
c1 = 0.0101 | 1.08e-09 m2/s
c1 = 0.0118 | 1.07e-09 m2/s and 1.08e-09 m2/s
c1 = 0.015 | 1.06e-09 m2/s and 1.07e-09 m2/s and 1.05e-09 m2/s
c1 = 0.0201 | 1.03e-09 m2/s

O=[As](O)(O)O [arsenic acid] + O
Conditions | binary diffusion coefficient
c1 = 0.000125 | 1.5e-09 m2/s and 1.49e-09 m2/s
c1 = 0.000407 | 1.41e-09 m2/s
c1 = 0.000837 | 1.35e-09 m2/s
c1 = 0.00101 | 1.33e-09 m2/s and 1.32e-09 m2/s
c1 = 0.00206 | 1.24e-09 m2/s
c1 = 0.00251 | 1.21e-09 m2/s
c1 = 0.00351 | 1.17e-09 m2/s
c1 = 0.00471 | 1.13e-09 m2/s and 1.14e-09 m2/s
c1 = 0.00506 | 1.12e-09 m2/s
c1 = 0.00701 | 1.08e-09 m2/s and 1.09e-09 m2/s
c1 = 0.00825 | 1.08e-09 m2/s and 1.07e-09 m2/s
c1 = 0.0119 | 1.03e-09 m2/s and 1.04e-09 m2/s
c1 = 0.014 | 1.02e-09 m2/s
